{
  "source": "patent US20090082260A1",
  "about": "“COMBINATION OF AN IMMUNOSUPPRESSANT AND A PPAR GAMMA AGONIST FOR THE TREATMENT OF AN UNDESIRABLE IMMUNE RESPONSE” (priority 2005, published 2009)",
  "tested_on": "cardiac allograft",
  "assay": "Cardiac allograft rejection in rats: long term graft survival",
  "assay_type": "in vivo, rat",
  "conditions": "for Mean Survival Time, extended data set: Table 10b",
  "method": "Animals were obtained from the Animal Resources Centre, Australia. The rats were allowed free access to food and water in a 12-hour light/12-hour dark cycled room. The experimental protocol was approved by the Committee on the Use of Live Animals in Teaching and Research, University of Hong Kong.\nSix rats were used in each treatment group.\nRecipient rats in TGA received hearts harvested from donor […] strain rats.\nGraft survival was analysed using a chi-squared test.\nExample 3 was extended to include a number of alternative treatment groups and additional numbers of animals in certain of the treatment groups already investigated.\nTable 10b below summarises the graft survival rates, including both the original and supplemental data.",
  "data": [
    {"smiles": "CN(CCOc1ccc(CC2SC(=O)NC2=O)cc1)c1ccccn1", "note": "(centres unmarked) [rosiglitazone, 5-[4-[2-(N-methyl-N-(2-pyridyl)amino)ethoxy]benzyl]thiazolidine-2,4-dione]", "values": [
      {"measurement": "Graft survival compared with untreated subjects (TGE)", "setting": "PPAR-gamma agonist alone at a high dose (TGF, 20 mg/kg/day)", "result": "does not show any notable difference"},
      {"measurement": "Graft survival compared with untreated subjects (TGE)", "setting": "PPAR-gamma agonist alone at a medium dose (TGB, 5 mg/kg/day)", "result": "does not show any notable difference"},
      {"measurement": "Mean Survival Time", "setting": "Table 10, TGA cyclosporin A 20 mg/kg/day i.p. 14 days, TGB rosiglitazone 5 mg/kg/day oral to day 120, TGC both, n=6", "result": 15.8, "unit": "days"},
      {"measurement": "Mean Survival Time, extended data set", "setting": "TGA cyclosporin A 20 mg/kg/day i.p. 14 days, TGB rosiglitazone 5 mg/kg/day oral, TGC both", "result": 15.8, "unit": "days"},
      {"measurement": "Mean Survival Time, extended data set", "setting": "TGF high dose rosiglitazone 20 mg/kg/day oral only, n=6", "result": 18.8, "unit": "days"}
    ]}
  ]
}
